In PubChem BioAssay AID1963827 (Molecular Pharmacology Branch, DTP, NCI, 2024):
pIC50: −log10 of the molar value.

Tested on: 994946-033-R-J1-PDC complex spheroid viability
Assay: Anticancer human tumor 994946-033-R-J1-PDC patient-derived melanoma cell line growth inhibition [POLQ]
Settings: for pIC50: curve of first compound; for viability, T/C: stronger effect = lower value
Method in brief: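 Growth inhibition in 3D: complex spheroids (tumor PDC, HUVEC, MSC) treated with POLQ inhibitor combinations; where Cmax unknown, highest tested concentration 10 microM, except SN-38 at 1 microM.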

[1] = second compound 0.0316 µM, first compound 0.0316 µM
[2] = second compound 0.0316 µM, first compound 0.1 µM
[3] = second compound 0.0316 µM, first compound 0.316 µM
[4] = second compound 0.0316 µM, first compound 1 µM
[5] = second compound 0.1 µM, first compound 0.0316 µM
[6] = second compound 0.1 µM, first compound 0.1 µM
[7] = second compound 0.1 µM, first compound 0.316 µM
[8] = second compound 0.1 µM, first compound 1 µM
[9] = second compound 0.316 µM, first compound 0.0316 µM
[10] = second compound 0.316 µM, first compound 0.1 µM
[11] = second compound 0.316 µM, first compound 0.316 µM
[12] = second compound 0.316 µM, first compound 1 µM
[13] = second compound 1 µM, first compound 0.0316 µM
[14] = second compound 1 µM, first compound 0.1 µM
[15] = second compound 1 µM, first compound 0.316 µM
[16] = second compound 1 µM, first compound 1 µM
[17] = second compound 3.16 µM, first compound 0.0316 µM
[18] = second compound 3.16 µM, first compound 0.1 µM
[19] = second compound 3.16 µM, first compound 0.316 µM
[20] = second compound 3.16 µM, first compound 1 µM
[21] = second compound 10 µM, first compound 0.0316 µM
[22] = second compound 10 µM, first compound 0.1 µM
[23] = second compound 10 µM, first compound 0.316 µM
[24] = second compound 10 µM, first compound 1 µM
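Also: spheroids exposed to drugs for 7 days.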
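For viability, T/C in this document: 100% = DMSO vehicle treated spheroids.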

With `COc1cccc(OCCCN)c1-c1cc(Nc2cnc(C#N)cn2)n[nH]1` + COC1C(OC(N)=O)C(O)C(Oc2ccc3c(O)c(NC(=O)c4ccc(O)c(CC=C(C)C)c4)c(=O)oc3c2C)OC1(C)C as the compound, how does the pIC50 (second compound 0.0316 µM) read?
Its pIC50 is 7.73.

And the pIC50 (second compound 0.1 µM)?
The pIC50 was 7.84.

And the pIC50 (second compound 0.316 µM)?
Its pIC50 is 7.92.

And the pIC50 (second compound 1 µM)?
The pIC50 was 8.25.

What about the pIC50 (second compound 3.16 µM) of the same compound?
Its pIC50 is 7.76.

What about the pIC50 (second compound 10 µM) of the same compound?
The pIC50 was 8.35.

And the viability, T/C (second compound 0.0316 µM, first compound 0.00316 µM)?
Its viability, T/C is 73.9%.

And the viability, T/C (second compound 0.0316 µM, first compound 0.01 µM)?
The viability, T/C was 69.9%.

And the viability, T/C [1]?
Its viability, T/C is 32.6%.

What about the viability, T/C [2] of the same compound?
The viability, T/C was 24.9%.

And the viability, T/C [3]?
The viability, T/C was 13.1%.

And the viability, T/C [4]?
The viability, T/C was 9.24%.

What about the viability, T/C (second compound 0.1 µM, first compound 0.00316 µM) of the same compound?
The viability, T/C was 84.2%.

And the viability, T/C (second compound 0.1 µM, first compound 0.01 µM)?
Its viability, T/C is 60.2%.

And the viability, T/C [5]?
Its viability, T/C is 27.5%.

What about the viability, T/C [6] of the same compound?
The viability, T/C was 14.4%.

What about the viability, T/C [7] of the same compound?
Its viability, T/C is 22%.

And the viability, T/C [8]?
The viability, T/C was 11.6%.

And the viability, T/C (second compound 0.316 µM, first compound 0.00316 µM)?
Its viability, T/C is 84.3%.

And the viability, T/C (second compound 0.316 µM, first compound 0.01 µM)?
Its viability, T/C is 52.7%.

What about the viability, T/C [9] of the same compound?
Its viability, T/C is 34.9%.

What about the viability, T/C [10] of the same compound?
The viability, T/C was 11%.

And the viability, T/C [11]?
Its viability, T/C is 26.5%.

And the viability, T/C [12]?
The viability, T/C was 18.1%.

And the viability, T/C (second compound 1 µM, first compound 0.00316 µM)?
Its viability, T/C is 57.6%.

What about the viability, T/C (second compound 1 µM, first compound 0.01 µM) of the same compound?
Its viability, T/C is 42.3%.

What about the viability, T/C [13] of the same compound?
Its viability, T/C is 25.7%.

What about the viability, T/C [14] of the same compound?
The viability, T/C was 17.3%.

What about the viability, T/C [15] of the same compound?
The viability, T/C was 30.8%.

And the viability, T/C [16]?
The viability, T/C was 13.8%.

And the viability, T/C (second compound 3.16 µM, first compound 0.00316 µM)?
The viability, T/C was 85.8%.

What about the viability, T/C (second compound 3.16 µM, first compound 0.01 µM) of the same compound?
The viability, T/C was 54.5%.

What about the viability, T/C [17] of the same compound?
Its viability, T/C is 38.7%.

And the viability, T/C [18]?
Its viability, T/C is 32.7%.

What about the viability, T/C [19] of the same compound?
Its viability, T/C is 19.7%.

What about the viability, T/C [20] of the same compound?
Its viability, T/C is 9.09%.

What about the viability, T/C (second compound 10 µM, first compound 0.00316 µM) of the same compound?
The viability, T/C was 56.9%.

What about the viability, T/C (second compound 10 µM, first compound 0.01 µM) of the same compound?
Its viability, T/C is 34.2%.

What about the viability, T/C [21] of the same compound?
The viability, T/C was 18.9%.

What about the viability, T/C [22] of the same compound?
Its viability, T/C is 21.2%.

What about the viability, T/C [23] of the same compound?
Its viability, T/C is 20.2%.

And the viability, T/C [24]?
The viability, T/C was 17.5%.

Which results are given for `CC1COCCN1c1cc(-c2ccnn2C)c2ccnc(-c3ccn[nH]3)c2n1` (stereo unspecified) + Cc1cccc(N(C)C(=O)C2C(O)CCN2c2nc(C)cc(C(F)(F)F)c2C#N)c1?
pIC50 (second compound 0.0316 µM): 7.22; pIC50 (second compound 0.1 µM): 7.27; pIC50 (second compound 0.316 µM): 7.29; pIC50 (second compound 1 µM): 7.24; pIC50 (second compound 3.16 µM): > 7.50; pIC50 (second compound 10 µM): 7.05; viability, T/C [1]: 77.7%; viability, T/C [2]: 27.9%; viability, T/C [3]: 13%; viability, T/C [4]: 24.4%; viability, T/C (second compound 0.0316 µM, first compound 3.16 µM): 16.6%; viability, T/C (second compound 0.0316 µM, first compound 10 µM): 8.57%; viability, T/C [5]: 69.1%; viability, T/C [6]: 28.4%; viability, T/C [7]: 14.2%; viability, T/C [8]: 31.3%; viability, T/C (second compound 0.1 µM, first compound 3.16 µM): 15.1%; viability, T/C (second compound 0.1 µM, first compound 10 µM): 7.78%; viability, T/C [9]: 72.5%; viability, T/C [10]: 18.6%; viability, T/C [11]: 25.1%; viability, T/C [12]: 12.4%; viability, T/C (second compound 0.316 µM, first compound 3.16 µM): 15.7%; viability, T/C (second compound 0.316 µM, first compound 10 µM): 7.71%; viability, T/C [13]: 63.4%; viability, T/C [14]: 33.9%; viability, T/C [15]: 29.9%; viability, T/C [16]: 16%; viability, T/C (second compound 1 µM, first compound 3.16 µM): 13.6%; viability, T/C (second compound 1 µM, first compound 10 µM): 7.27%; viability, T/C [17]: 49%; viability, T/C [18]: 35.3%; viability, T/C [19]: 18.5%; viability, T/C [20]: 12.7%; viability, T/C (second compound 3.16 µM, first compound 3.16 µM): 11%; viability, T/C (second compound 3.16 µM, first compound 10 µM): 6.95%; viability, T/C [21]: 81.8%; viability, T/C [22]: 42%; viability, T/C [23]: 30.7%; viability, T/C [24]: 21.6%; viability, T/C (second compound 10 µM, first compound 3.16 µM): 15.3%; viability, T/C (second compound 10 µM, first compound 10 µM): 8.65%

`CC(=O)O[C@H]1C(=O)[C@@]2(C)[C@H]([C@H](OC(=O)c3ccccc3)[C@]3(O)C[C@H](OC(=O)[C@H](O)[C@@H](NC(=O)c4ccccc4)c4ccccc4)C(C)=C1C3(C)C)[C@]1(OC(C)=O)CO[C@@H]1C[C@@H]2O` + Nc1ccc(C#CCN(C(=O)Cc2ncc(C(F)(F)F)cc2C(F)(F)F)c2ccc(F)cc2)nn1 was tested. Which pIC50 (second compound 0.0316 µM) did it give?
The pIC50 was over 8.02.

And the pIC50 (second compound 0.1 µM)?
The pIC50 was over 8.02.

And the pIC50 (second compound 0.316 µM)?
Its pIC50 is over 8.02.

What about the pIC50 (second compound 1 µM) of the same compound?
The pIC50 was over 8.02.

What about the pIC50 (second compound 3.16 µM) of the same compound?
The pIC50 was over 8.02.

And the pIC50 (second compound 10 µM)?
The pIC50 was over 8.02.

And the viability, T/C (second compound 0.0316 µM, first compound 0.00949 µM)?
Its viability, T/C is 20.4%.

And the viability, T/C (second compound 0.0316 µM, first compound 0.03 µM)?
Its viability, T/C is 18.5%.

What about the viability, T/C (second compound 0.0316 µM, first compound 0.0949 µM) of the same compound?
The viability, T/C was 14.8%.

And the viability, T/C (second compound 0.0316 µM, first compound 0.3 µM)?
The viability, T/C was 22%.

And the viability, T/C (second compound 0.0316 µM, first compound 0.949 µM)?
The viability, T/C was 13.5%.

And the viability, T/C (second compound 0.0316 µM, first compound 3 µM)?
The viability, T/C was 12%.

And the viability, T/C (second compound 0.1 µM, first compound 0.00949 µM)?
Its viability, T/C is 25.9%.

What about the viability, T/C (second compound 0.1 µM, first compound 0.03 µM) of the same compound?
Its viability, T/C is 23.6%.

And the viability, T/C (second compound 0.1 µM, first compound 0.0949 µM)?
Its viability, T/C is 19.4%.

And the viability, T/C (second compound 0.1 µM, first compound 0.3 µM)?
The viability, T/C was 15.9%.

And the viability, T/C (second compound 0.1 µM, first compound 0.949 µM)?
Its viability, T/C is 9.63%.

And the viability, T/C (second compound 0.1 µM, first compound 3 µM)?
The viability, T/C was 13.3%.

What about the viability, T/C (second compound 0.316 µM, first compound 0.00949 µM) of the same compound?
The viability, T/C was 22.3%.

And the viability, T/C (second compound 0.316 µM, first compound 0.03 µM)?
The viability, T/C was 20.8%.

What about the viability, T/C (second compound 0.316 µM, first compound 0.0949 µM) of the same compound?
The viability, T/C was 20.4%.

And the viability, T/C (second compound 0.316 µM, first compound 0.3 µM)?
Its viability, T/C is 15.9%.

And the viability, T/C (second compound 0.316 µM, first compound 0.949 µM)?
The viability, T/C was 13.8%.

And the viability, T/C (second compound 0.316 µM, first compound 3 µM)?
The viability, T/C was 13.9%.

And the viability, T/C (second compound 1 µM, first compound 0.00949 µM)?
Its viability, T/C is 29.7%.

What about the viability, T/C (second compound 1 µM, first compound 0.03 µM) of the same compound?
The viability, T/C was 24.9%.

What about the viability, T/C (second compound 1 µM, first compound 0.0949 µM) of the same compound?
Its viability, T/C is 20%.

What about the viability, T/C (second compound 1 µM, first compound 0.3 µM) of the same compound?
Its viability, T/C is 20%.

And the viability, T/C (second compound 1 µM, first compound 0.949 µM)?
Its viability, T/C is 15.3%.

And the viability, T/C (second compound 1 µM, first compound 3 µM)?
Its viability, T/C is 13.2%.

And the viability, T/C (second compound 3.16 µM, first compound 0.00949 µM)?
Its viability, T/C is 29.2%.

What about the viability, T/C (second compound 3.16 µM, first compound 0.03 µM) of the same compound?
Its viability, T/C is 24.2%.

And the viability, T/C (second compound 3.16 µM, first compound 0.0949 µM)?
The viability, T/C was 18.4%.

What about the viability, T/C (second compound 3.16 µM, first compound 0.3 µM) of the same compound?
The viability, T/C was 15.3%.

And the viability, T/C (second compound 3.16 µM, first compound 0.949 µM)?
The viability, T/C was 14.1%.

And the viability, T/C (second compound 3.16 µM, first compound 3 µM)?
Its viability, T/C is 12.1%.

What about the viability, T/C (second compound 10 µM, first compound 0.00949 µM) of the same compound?
Its viability, T/C is 24.8%.

What about the viability, T/C (second compound 10 µM, first compound 0.03 µM) of the same compound?
Its viability, T/C is 24%.

What about the viability, T/C (second compound 10 µM, first compound 0.0949 µM) of the same compound?
The viability, T/C was 25%.

And the viability, T/C (second compound 10 µM, first compound 0.3 µM)?
The viability, T/C was 18%.

What about the viability, T/C (second compound 10 µM, first compound 0.949 µM) of the same compound?
Its viability, T/C is 18.9%.

What about the viability, T/C (second compound 10 µM, first compound 3 µM) of the same compound?
The viability, T/C was 12.2%.
